Results taken from publication PMC7069796 (Breast cancer research and treatment, 2020).

Molecular target: T1, Estrogen Receptor Alpha (ERα) (Homo sapiens, UniProt P03372, Y537S)
T1 sequence (P03372 282-595 Y537S): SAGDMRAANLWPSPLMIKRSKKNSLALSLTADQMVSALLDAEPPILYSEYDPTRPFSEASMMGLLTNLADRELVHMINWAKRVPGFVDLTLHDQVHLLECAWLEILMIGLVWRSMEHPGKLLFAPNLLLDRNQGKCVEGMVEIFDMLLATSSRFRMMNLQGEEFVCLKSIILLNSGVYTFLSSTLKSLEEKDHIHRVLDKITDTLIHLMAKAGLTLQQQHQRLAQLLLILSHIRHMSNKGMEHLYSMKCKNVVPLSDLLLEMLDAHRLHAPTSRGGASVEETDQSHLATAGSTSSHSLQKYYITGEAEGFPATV
Test: LanthaScreen TR-FRET competitive binding assay with purified GST-ERα LBD

CCC(=C(c1ccc(/C=C/C(=O)O)cc1)c1ccc(B(O)O)cc1)c1ccccc1 [GLL398]
IC50: 29.5 nM
